Target: (recombinant) catalytic domain of human Bub1 (amino acids 704-1085) (Homo sapiens (Human), UniProt O43683)
Assay: Bub1 kinase assay (TR-FRET)
Assay type: biochemical
Conditions: ATP 10 μM final, peptide substrate 1 μM final, 60 min at 22° C., read-out: Biological Assay: Bub1 kinase assay median IC50
Outline: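 Readout was TR-FRET between a Eu-labeled antibody complex recognizing phosphoserine and streptavidin-XL665 on the biotinylated peptide, after EDTA stop and 1 h at 22° C. The kinase reaction ran for 60 min at 22° C. Values are means or medians of repeat tests, from 4-parameter fits normalized to enzyme-free and inhibitor-free controls.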

(recombinant) catalytic domain of human Bub1 (amino acids 704-1085), sequence (O43683 704-1085): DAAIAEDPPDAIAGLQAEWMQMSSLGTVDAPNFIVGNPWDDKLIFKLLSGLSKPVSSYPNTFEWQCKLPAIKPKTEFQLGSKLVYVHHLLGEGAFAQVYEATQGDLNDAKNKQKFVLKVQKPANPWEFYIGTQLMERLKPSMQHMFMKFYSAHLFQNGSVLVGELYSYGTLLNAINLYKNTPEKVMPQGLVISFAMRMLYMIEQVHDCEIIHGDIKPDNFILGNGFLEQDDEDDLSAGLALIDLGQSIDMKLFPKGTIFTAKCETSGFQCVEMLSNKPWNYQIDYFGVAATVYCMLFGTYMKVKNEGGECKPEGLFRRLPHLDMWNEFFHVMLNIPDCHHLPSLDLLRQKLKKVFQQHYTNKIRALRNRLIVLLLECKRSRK

Row | SMILES | IC50
1 | Cc1nnc(COCC(=O)Nc2cc(-c3[nH]c4c(c3Nc3ccccc3)C(=O)CCC4)ccn2)s1 [Example 356, 2-[(5-methyl-1,3,4-thiadiazol-2-yl)methoxy]-N-{4-[4-oxo-3-(phenylamino)-4,5,6,7-tetrahydro-1H-indol-2-yl]pyridin-2-yl}acetamide] | 7.91 nM
2 | CC1(C)CC(=O)c2c([nH]c(-c3ccncc3)c2Nc2cccc(Cl)c2)C1 [Example 4, 6,6-dimethyl-3-[(3-chlorophenyl)amino]-2-(pyridin-4-yl)-1,5,6,7-tetrahydro-4H-indol-4-one] | 15.9 nM
3 | CC1(C)CC(=O)c2c([nH]c(-c3ccnc(NC(=O)c4nccs4)c3)c2Nc2ccccc2)C1 [Example 505, N-{4-[6,6-dimethyl-4-oxo-3-(phenylamino)-4,5,6,7-tetrahydro-1H-indol-2-yl]pyridin-2-yl}-1,3-thiazole-2-carboxamide] | 11.1 nM
4 | CCn1c2c(c(Nc3ccccc3)c1-c1ccncc1)C(=O)CCC2 [Example 170, 1-ethyl-3-(phenylamino)-2-(pyridin-4-yl)-1,5,6,7-tetrahydro-4H-indol-4-one] | 40.2 nM
5 | O=C(COc1ccccc1)Nc1cc(-c2[nH]c3c(c2Nc2ccccc2)C(=O)CCC3)ccn1 [Example 337, N-{4-[4-oxo-3-(phenylamino)-4,5,6,7-tetrahydro-1H-indol-2-yl]pyridin-2-yl}-2-phenoxyacetamide] | 22.9 nM
6 | O=C(Nc1cc(-c2[nH]c3c(c2Nc2ccccc2)C(=O)CCC3)ccn1)c1ccccn1 [Example 269, N-{4-[4-oxo-3-(phenylamino)-4,5,6,7-tetrahydro-1H-indol-2-yl]pyridin-2-yl}pyridine-2-carboxamide] | 29.4 nM
7 | CC1(C)CC(=O)c2c([nH]c(-c3ccnc4[nH]ccc34)c2Nc2ccccc2)C1 [Example 27, 6,6-dimethyl-3-(phenylamino)-2-(1H-pyrrolo[2,3-b]pyridin-4-yl)-1,5,6,7-tetrahydro-4H-indol-4-one] | 43.3 nM
8 | CC1(C)CC(=O)c2c([nH]c(-c3ccncc3)c2Nc2ccc3cc[nH]c3c2)C1 [Example 68, 3-(1H-indol-6-ylamino)-6,6-dimethyl-2-(pyridin-4-yl)-1,5,6,7-tetrahydro-4H-indol-4-one] | 84.2 nM
9 | Cc1nnc(COCC(=O)Nc2cc(-c3[nH]c4c(c3Nc3ccccc3)C(=O)CCC4)ccn2)o1 [Example 353, 2-[(5-methyl-1,3,4-oxadiazol-2-yl)methoxy]-N-{4-[4-oxo-3-(phenylamino)-4,5,6,7-tetrahydro-1H-indol-2-yl]pyridin-2-yl}acetamide] | 14.4 nM
10 | CN(C)CC(=O)Nc1cc(-c2[nH]c3c(c2Nc2ccccc2)C(=O)CCC3)ccn1 [Example 307, N^2,N^2;-dimethyl-N-{4-[4-oxo-3-(phenylamino)-4,5,6,7-tetrahydro-1H-indol-2-yl]pyridin-2-yl}glycinamide] | 208 nM
11 | CC1(C)CC(=O)c2c([nH]c(-c3ccnc(NCc4cncs4)c3)c2Nc2ccccc2)C1 [Example 508, 6,6-dimethyl-3-(phenylamino)-2-{2-[(1,3-thiazol-5-ylmethyl)amino]pyridin-4-yl}-1,5,6,7-tetrahydro-4H-indol-4-one] | 193 nM
12 | O=C(COC[C@@H]1CCCCO1)Nc1cc(-c2[nH]c3c(c2Nc2ccccc2)C(=O)CCC3)ccn1 [Example 343, N-{4-[4-oxo-3-(phenylamino)-4,5,6,7-tetrahydro-1H-indol-2-yl]pyridin-2-yl}-2-[(2S)-tetrahydro-2H-pyran-2-ylmethoxy]acetamide] | 8.45 nM
13 | CC1(C)CC(=O)c2c([nH]c(-c3ccnc(NC(=O)c4cscn4)c3)c2Nc2ccccc2)C1 [Example 272, N-{4-[6,6-dimethyl-4-oxo-3-(phenylamino)-4,5,6,7-tetrahydro-1H-indol-2-yl]pyridin-2-yl}-1,3-thiazole-4-carboxamide] | 6.63 nM
14 | CCNC(=O)c1cccc(Nc2c(-c3ccncc3)[nH]c3c2C(=O)CC(C)(C)C3)c1 [Example 144, 3-{[6,6-dimethyl-4-oxo-2-(pyridin-4-yl)-4,5,6,7-tetrahydro-1H-indol-3-yl]amino}-N-ethylbenzamide] | 1720 nM
15 | O=C1CCCc2[nH]c(-c3ccnc(NC(=O)C4CC4c4ccccc4)c3)c(Nc3ccccc3)c21 (stereo not drawn) [Example 239, N-{4-[4-oxo-3-(phenylamino)-4,5,6,7-tetrahydro-1H-indol-2-yl]pyridin-2-yl}-2-phenylcyclopropanecarboxamide] | 45.9 nM
16 | CC(C)C1CC(=O)c2c([nH]c(-c3ccnc(NC(=O)C4CC4)c3)c2Nc2cccc(F)c2)C1 (stereo not drawn) [Example 320, N-{4-[3-[(3-fluorophenyl)amino]-4-oxo-6-(propan-2-yl)-4,5,6,7-tetrahydro-1H-indol-2-yl]pyridin-2-yl}cyclopropanecarboxamide] | 8.04 nM
17 | CC1(C)CC(=O)c2c([nH]c(-c3ccncc3)c2Nc2cccc(C(F)(F)F)c2)C1 [Example 51, 6,6-dimethyl-2-(pyridin-4-yl)-3-{[3-(trifluoromethyl)phenyl]amino}-1,5,6,7-tetrahydro-4H-indol-4-one] | 136 nM
18 | O=C(Nc1cc(-c2[nH]c3c(c2Nc2ccccc2)C(=O)CCC3)ccn1)c1ccc(F)c(F)c1 [Example 451, 3,4-difluoro-N-{4-[4-oxo-3-(phenylamino)-4,5,6,7-tetrahydro-1H-indol-2-yl]pyridin-2-yl}benzamide] | 8.82 nM

Row | SMILES | IC50
19 | CC1(C)CC(=O)c2c([nH]c(-c3ccncc3OCC(F)F)c2Nc2ccccc2)C1 [Example 408, 2-[3-(2,2-difluoroethoxy)pyridin-4-yl]-6,6-dimethyl-3-(phenylamino)-1,5,6,7-tetrahydro-4H-indol-4-one] | 6.42 nM
20 | CC1(C)CC(=O)c2c([nH]c(-c3ccncc3)c2Nc2ccc3[nH]ccc3c2)C1 [Example 70, 3-(1H-indol-5-ylamino)-6,6-dimethyl-2-(pyridin-4-yl)-1,5,6,7-tetrahydro-4H-indol-4-one] | 81.7 nM
21 | Cc1c(Cl)cccc1Nc1c(-c2ccncc2)[nH]c2c1C(=O)CC(C)(C)C2 [Example 91, 3-[(3-chloro-2-methylphenyl)amino]-6,6-dimethyl-2-(pyridin-4-yl)-1,5,6,7-tetrahydro-4H-indol-4-one] | 101 nM
22 | O=C1CCCc2[nH]c(-c3ccnc(NCc4cccnc4)c3)c(Nc3ccccc3)c21 [Example 372, 3-(phenylamino)-2-{2-[(pyridin-3-ylmethyl)amino]pyridin-4-yl}-1,5,6,7-tetrahydro-4H-indol-4-one] | 9530 nM
23 | CC1(C)CC(=O)c2c(Nc3ccccc3)c(-c3ccncc3)n(Cc3ccccc3)c2C1 [Example 186, 1-benzyl-6,6-dimethyl-3-(phenylamino)-2-(pyridin-4-yl)-1,5,6,7-tetrahydro-4H-indol-4-one] | 2940 nM
24 | CC1(C)CC(=O)c2c([nH]c(-c3ccncc3)c2Nc2ccc3cn[nH]c3c2)C1 [Example 74, 3-(1H-indazol-6-ylamino)-6,6-dimethyl-2-(pyridin-4-yl)-1,5,6,7-tetrahydro-4H-indol-4-one] | 82.3 nM
25 | O=C(COCc1ccc(F)cc1)Nc1cc(-c2[nH]c3c(c2Nc2ccccc2)C(=O)CCC3)ccn1 [Example 341, 2-[(4-fluorobenzyl)oxy]-N-{4-[4-oxo-3-(phenylamino)-4,5,6,7-tetrahydro-1H-indol-2-yl]pyridin-2-yl}acetamide] | 7.89 nM
26 | O=C1CC(CF)Cc2[nH]c(-c3ccncc3)c(Nc3ccccc3)c21 (stereo not drawn) [Example 442, 6-(fluoromethyl)-3-(phenylamino)-2-(pyridin-4-yl)-1,5,6,7-tetrahydro-4H-indol-4-one] | 6.97 nM
27 | CC1(C)CC(=O)c2c([nH]c(-c3cc(Cl)ncc3F)c2Nc2ccccc2)C1 [Example 220, 2-(2-chloro-5-fluoropyridin-4-yl)-6,6-dimethyl-3-(phenylamino)-1,5,6,7-tetrahydro-4H-indol-4-one] | 1400 nM
28 | CC1(C)CC(=O)c2c([nH]c(-c3ccnc(NC(=O)[C@H]4C[C@H]4F)c3)c2Nc2ccccc2)C1 [Example 259] | 10.1 nM
29 | CC1(C)CC(=O)c2c([nH]c(-c3ccncc3)c2Nc2cccc(C(=O)OC(C)(C)C)c2)C1 [Example 118, tert-butyl 3-{[6,6-dimethyl-4-oxo-2-(pyridin-4-yl)-4,5,6,7-tetrahydro-1H-indol-3-yl]amino}benzoate] | 457 nM
30 | CC1(C)CC(=O)c2c([nH]c(-c3ccncc3)c2Nc2ccc(F)c(CO)c2)C1 [Example 111, 3-{[4-fluoro-3-(hydroxymethyl)phenyl]amino}-6,6-dimethyl-2-(pyridin-4-yl)-1,5,6,7-tetrahydro-4H-indol-4-one] | 2630 nM
31 | CCC1CC(=O)c2c([nH]c(-c3ccncc3)c2Nc2ccccc2)C1 (stereo not drawn) [Example 28, 6-ethyl-3-(phenylamino)-2-(pyridin-4-yl)-1,5,6,7-tetrahydro-4H-indol-4-one] | 5.93 nM
32 | CC1(C)CC(=O)c2c([nH]c(-c3ccncc3)c2Nc2ccccn2)C1 [Example 25, 6,6-dimethyl-2-(pyridin-4-yl)-3-(pyridin-2-ylamino)-1,5,6,7-tetrahydro-4H-indol-4-one] | 26.3 nM
33 | O=C1CC2(CCC2)Cc2[nH]c(-c3ccncc3)c(Nc3ccccc3)c21 [Example 13, 3′-(phenylamino)-2′-(pyridin-4-yl)-1′,7′-dihydrospiro[cyclobutane-1,6′-indol]-4′(5′H)-one] | 6.55 nM
34 | O=C(CC1CC1)Nc1cc(-c2[nH]c3c(c2Nc2ccccc2)C(=O)CCC3)ccn1 [Example 231, 2-cyclopropyl-N-{4-[4-oxo-3-(phenylamino)-4,5,6,7-tetrahydro-1H-indol-2-yl]pyridin-2-yl}acetamide] | 29.9 nM
35 | CC1(C)CC(=O)c2c([nH]c(-c3ccncc3)c2Nc2cc(Cl)cc(Cl)c2)C1 [Example 77, 3-[(3,5-dichlorophenyl)amino]-6,6-dimethyl-2-(pyridin-4-yl)-1,5,6,7-tetrahydro-4H-indol-4-one] | 1550 nM
36 | CC1(C)CC(=O)c2c([nH]c(-c3ccncc3)c2Nc2cccc3ccccc23)C1 [Example 157, 6,6-dimethyl-3-(naphthalen-1-ylamino)-2-(pyridin-4-yl)-1,5,6,7-tetrahydro-4H-indol-4-one] | 764 nM

— US10428044B2, “3-amino-1,5,6,7-tetrahydro-4H-indol-4-ones” (Bayer Pharma Aktiengesellschaft, priority 2014, dated 2019)
